The term melting point denotes the temperature, or range, at which the solid turns liquid.

`CCNC(=O)Nc1ccc2ncc(Nc3cc(C(C)(C)C)ccc3O)nc2n1` [Compound 336, 1-[3-(5-tert-Butyl-2-hydroxy-phenylamino)-pyrido[2,3-b]pyrazin-6-yl]-3-ethyl-urea] had a melting point of 255 °C. `CCNC(=S)Nc1cnc2ccc(Nc3ccc(C4(C#N)CCCC4)cc3)nc2n1` [Compound 257, 1-{6-[4-(1-Cyano-cyclopentyl)-phenylamino]-pyrido[2,3-b]pyrazin-3-yl}-3-ethyl-thiourea] displayed a melting point of 216 °C. For `CCNC(=O)Nc1ccc2ncc(-c3ccc(C)c([N+](=O)[O-])c3)nc2n1` [Compound 85, 1-Ethyl-3-[3-(4-methyl-3-nitro-phenyl)-pyrido[2,3-b]pyrazin-6-yl]-urea] the value was 253.3 to 256.2 °C; for `CCNC(=O)Nc1ccc2ncc(-c3ccn[nH]3)nc2n1` [Compound 52, 1-Ethyl-3-[3-(2H-pyrazol-3-yl)-pyrido[2,3-b]pyrazin-6-yl]-urea], 218 to 220 °C. Under `CCNC(=O)Nc1ccc2ncc(-c3cccc(N(C)C)c3)nc2n1` [Compound 144, 1-[3-(3-Dimethylamino-phenyl)-pyrido[2,3-b]pyrazin-6-yl]-3-ethyl-urea] stands 240 to 244 °C. On to `COCCNC(=S)Nc1ccc2ncc(Nc3cc(OC)c(OC)c(OC)c3)nc2n1` [Compound 705, 1-(2-Methoxy-ethyl)-3-[3-(3,4,5-trimethoxy-phenylamino)-pyrido[2,3-b]pyrazin-6-yl]-thiourea], for which the melting point lay in the range of 243 to 245 °C. `COc1cc(-c2ccc3ncc(NC(=O)Nc4ccccc4[N+](=O)[O-])nc3n2)ccc1O` [Compound 617, 1-[6-(4-Hydroxy-3-methoxy-phenyl)-pyrido[2,3-b]pyrazin-3-yl]-3-(2-nitro-phenyl)-urea] had a melting point of 220 to 222 °C. As to `CCNC(=O)Nc1cnc2ccc(Cl)nc2n1` [Example 1, 1-(6-Chloro-pyrido[2,3-b]pyrazin-3-yl)-3-ethyl-urea], the melting point came out at 240 °C. In turn, `CCNC(=O)Nc1cnc2ccc(Nc3ccc(O)c(Cl)c3)nc2n1` [Compound 31, 1-[6-(3-Chloro-4-hydroxy-phenylamino)-pyrido[2,3-b]pyrazin-3-yl]-3-ethyl-urea] registered a melting point of 277 to 280 °C. On to `COc1cc(Nc2cnc3ccc(NC(=S)NC4CCCCC4)nc3n2)cc(OC)c1OC` [Compound 690, 1-Cyclohexyl-3-[3-(3,4,5-trimethoxy-phenylamino)-pyrido[2,3-b]pyrazin-6-yl]-thiourea], for which the melting point was 248 °C. With `O=C(Nc1ccccc1)Nc1cnc2ccc(Nc3ccccc3)nc2n1` [Compound 14, 1-Phenyl-3-(6-phenylamino-pyrido[2,3-b]pyrazin-3-yl)-urea], the melting point stood at 251 °C.

The compound `COc1cc(Nc2cnc3ccc(NC(=S)NC4CCCCCCC4)nc3n2)cc(OC)c1OC` [Compound 691, 1-Cyclooctyl-3-[3-(3,4,5-trimethoxy-phenylamino)-pyrido[2,3-b]pyrazin-6-yl]-thiourea] came in with a melting point of 250 °C. Consider `CCNC(=O)Nc1cnc2ccc(-c3ccc(O)c(Br)c3)nc2n1` [Compound 641, 1-[6-(3-Bromo-4-hydroxy-phenyl)-pyrido[2,3-b]pyrazin-3-yl]-3-ethyl-urea], for which the melting point turned out to be 291 °C. Take `C=CCNC(=O)Nc1cnc2ccc(-c3ccc(OC)c(OC)c3)nc2n1` [Compound 575, 1-Allyl-3-[6-(3,4-dimethoxy-phenyl)-pyrido[2,3-b]pyrazin-3-yl]-urea]: the melting point was in the range of 236 to 238 °C. As for `CCNC(=O)Nc1ccc2ncc(-c3ccc(OS(C)(=O)=O)c(OC)c3)nc2n1` [Compound 43, Methanesulfonic acid 4-[6-(3-ethyl-ureido)-pyrido[2,3-b]pyrazin-3-yl]-2-methoxy-phenyl ester], the melting point was 246 to 249 °C. Compound `CCNC(=O)Nc1ccc2ncc(-c3ccc(Cl)cc3)nc2n1` [Compound 122, 1-[3-(4-Chloro-phenyl)-pyrido[2,3-b]pyrazin-6-yl]-3-ethyl-urea] registered a melting point of 244 to 247 °C. `CCNC(=O)Nc1ccc2ncc(Nc3cccc(C(C)=O)c3)nc2n1` [Compound 170, 1-[3-(3-Acetyl-phenylamino)-pyrido[2,3-b]pyrazin-6-yl]-3-ethyl-urea]: the melting point is 243 °C.

In turn, `COc1cc(-c2ccc3ncc(NC(=O)Nc4cccc5c4ccn5C)nc3n2)ccc1O` [Compound 621, 1-[6-(4-Hydroxy-3-methoxy-phenyl)-pyrido[2,3-b]pyrazin-3-yl]-3-(1-methyl-1H-indol-4-yl)-urea] showed a melting point of 248 to 251 °C. Regarding `CCNC(=O)Nc1ccc2ncc(-c3cnn(CCN4CCOCC4)c3)nc2n1` [Compound 60, 1-Ethyl-3-{3-[1-(2-morpholin-4-yl-ethyl)-1H-pyrazol-4-yl]-pyrido[2,3-b]pyrazin-6-yl}-urea], the melting point lay in the range of 223 to 226 °C. `CNC(=O)Nc1cnc2ccc(-c3ccc(O)c(OC)c3)nc2n1` [Compound 172, 1-[6-(4-Hydroxy-3-methoxy-phenyl)-pyrido[2,3-b]pyrazin-3-yl]-3-methyl-urea] came in with a melting point of 242 to 244 °C. `COc1cc(Nc2cnc3ccc(NC(=S)NCc4ccccc4)nc3n2)cc(OC)c1OC` [Compound 697, 1-Benzyl-3-[3-(3,4,5-trimethoxy-phenylamino)-pyrido[2,3-b]pyrazin-6-yl]-thiourea]: the melting point lay in the range of 250 to 252 °C. Compound `CCNC(=O)Nc1cnc2ccc(Nc3ccc(OC)c(Cl)c3)nc2n1` [Compound 201, 1-[6-(3-Chloro-4-methoxy-phenylamino)-pyrido[2,3-b]pyrazin-3-yl]-3-ethyl-urea] came in with a melting point of 260 °C.

With `CCNC(=O)Nc1ccc2ncc(-c3cc(Cl)ccc3OC)nc2n1` [Compound 91, 1-[3-(5-Chloro-2-methoxy-phenyl)-pyrido[2,3-b]pyrazin-6-yl]-3-ethyl-urea], the melting point lay within 254 to 257 °C. Compound `COc1cc(-c2ccc3ncc(NC(=O)Nc4ccc5sccc5c4)nc3n2)ccc1O` [Compound 609] had a melting point of 257 to 259 °C. As for `CCNC(=O)Nc1ccc2ncc(Nc3ccc(O)cc3C)nc2n1` [Compound 394, 1-Ethyl-3-[3-(4-hydroxy-2-methyl-phenylamino)-pyrido[2,3-b]pyrazin-6-yl]-urea], the melting point amounted to 272 °C. For `CCNC(=S)Nc1cnc2ccc(Nc3ccc(O)cc3)nc2n1` [Compound 198, 1-Ethyl-3-[6-(4-hydroxy-phenylamino)-pyrido[2,3-b]pyrazin-3-yl]-thiourea], the melting point was 258 °C.

Regarding `CCCNC(=O)Nc1cnc2ccc(-c3ccc(OC)c(OC)c3)nc2n1` [Compound 570, 1-[6-(3,4-Dimethoxy-phenyl)-pyrido[2,3-b]pyrazin-3-yl]-3-propyl-urea], the melting point lay in the range of 246 to 248 °C. As to `CCNC(=O)Nc1cnc2ccc(N3CCCN(C)CC3)nc2n1` [Compound 233, 1-Ethyl-3-[6-(4-methyl-[1,4]diazepan-1-yl)-pyrido[2,3-b]pyrazin-3-yl]-urea], the melting point is 199 to 201 °C. Regarding `CCNC(=O)Nc1cnc2ccc(-c3ccc(Cl)cc3)nc2n1` [Compound 6, 1-[6-(4-Chloro-phenyl)-pyrido[2,3-b]pyrazin-3-yl]-3-ethyl-urea], the melting point turned out to be 276 °C. For `CCNC(=S)Nc1cnc2ccc(-c3ccc(C)cc3)nc2n1` [Compound 651, 1-Ethyl-3-(6-p-tolyl-pyrido[2,3-b]pyrazin-3-yl)-thiourea] the value was 230 to 231 °C; for `CCCNC(=O)Nc1cnc2ccc(-c3ccc(O)c(OC)c3)nc2n1` [Compound 16, 1-[6-(4-Hydroxy-3-methoxy-phenyl)-pyrido[2,3-b]pyrazin-3-yl]-3-propyl-urea], 220 to 222 °C.

Regarding `CCNC(=O)Nc1ccc2ncc(-c3cncn3C)nc2n1` [Compound 53, 1-Ethyl-3-[3-(3-methyl-3H-imidazol-4-yl)-pyrido[2,3-b]pyrazin-6-yl]-urea], the melting point lay in the range of 257 to 259 °C. Turning to `CCNC(=O)Nc1ccc2ncc(-c3cc(OC)ccc3OC)nc2n1` [Compound 145, 1-[3-(2,5-Dimethoxy-phenyl)-pyrido[2,3-b]pyrazin-6-yl]-3-ethyl-urea], the melting point lay in the range of 207 to 209 °C. In turn, `COc1cc(-c2ccc3ncc(NC(=O)NC4CCCCCCCCCCC4)nc3n2)ccc1O` [Compound 628, 1-Cyclododecyl-3-[6-(4-hydroxy-3-methoxy-phenyl)-pyrido[2,3-b]pyrazin-3-yl]-urea] showed a melting point of 233 to 235 °C. Consider `CCNC(=O)Nc1cnc2ccc(Nc3cc(Cl)c(O)c(Cl)c3)nc2n1` [Compound 15, 1-[6-(3,5-Dichloro-4-hydroxy-phenylamino)-pyrido[2,3-b]pyrazin-3-yl]-3-ethyl-urea], for which the melting point worked out at 272 °C.

The compound `CCNC(=O)Nc1ccc2ncc(-c3cccc4c3oc3ccccc34)nc2n1` [Compound 71, 1-(3-Dibenzofuran-4-yl-pyrido[2,3-b]pyrazin-6-yl)-3-ethyl-urea] registered a melting point of over 300 °C. Under `COc1ccc(-c2ccc3ncc(NC(=O)Nc4ccc(C)cc4)nc3n2)cc1OC` [Compound 578, 1-[6-(3,4-Dimethoxy-phenyl)-pyrido[2,3-b]pyrazin-3-yl]-3-p-tolyl-urea] stands 263 to 266 °C; under `CCNC(=S)Nc1ccc2ncc(Nc3ccc(OC)c(Cl)c3)nc2n1` [Compound 159, 1-[3-(3-Chloro-4-methoxy-phenylamino)-pyrido[2,3-b]pyrazin-6-yl]-3-ethyl-thiourea], 276 °C; under `CCNC(=O)Nc1cnc2ccc(-c3ccc(C)cc3)nc2n1` [Compound 178, 1-Ethyl-3-(6-p-tolyl-pyrido[2,3-b]pyrazin-3-yl)-urea], 227 to 228 °C. On to `COc1cc(Nc2cnc3ccc(NC(=S)NCCc4ccccc4)nc3n2)cc(OC)c1OC` [Compound 699, 1-Phenethyl-3-[3-(3,4,5-trimethoxy-phenylamino)-pyrido[2,3-b]pyrazin-6-yl]-thiourea], for which the melting point was in the range of 197 to 200 °C. Under `COc1cc(-c2ccc3ncc(NC(=O)Nc4c(C)noc4C)nc3n2)ccc1O` [Compound 27, 1-(3,5-Dimethyl-isoxazol-4-yl)-3-[6-(4-hydroxy-3-methoxy-phenyl)-pyrido[2,3-b]pyrazin-3-yl]-urea] stands 249 to 252 °C.

The record behind these values is patent US8536332B2, “Modulating signal transduction pathways with substituted pyridol [2,3-b] pyrazines” (Aeterna Zentaris GmbH, priority 2007, dated 2013).
